{"source": "patent US8193201B2", "about": "“Synergistic anti-inflammatory pharmaceutical compositions and related methods using curcuminoids or methylxanthines” (priority 2004, dated 2012)", "origin": "cited, not measured here", "system": "PGE2", "details": "value reported in the literature (Fiebich et al.)", "data": [{"smiles": "Cn1c(=O)c2c(ncn2C)n(C)c1=O", "note": "[Caffeine, caffeine]", "values": [{"measurement": "median PGE2 inhibitory concentration", "value": 8.2, "unit": "µg/mL"}]}]}
